Test results as given in patent publication US7335674B2, “Benzothiazole-4,7-diones and benzoxazole-4,7-diones with substituents in position 5 or 6 and method for production thereof” (Societe de Conseils de Recherches et d'Applications …, priority 2003, dated 2008).

Legend:
[1] = system: DU145 (human prostate cancer cells); assay: Antiproliferative activity, WST1 colorimetric test, DU145; assay type: cell-based; settings: DU-145, treated 96 hours, up to 10 μM, read-out: IC50 on the cell proliferation of the DU-145 lines
Protocol: (§1) iii) Characterization of the Antiproliferative Activity:
(§2) By way of example, the effect of a treatment on two human cell lines Mia-Paca2 and DU145 by the compounds of the examples described previously will be studied. The cell lines DU145 (human prostate cancer cells) and Mia-PaCa2 (human pancreas cancer cells) were acquired from the American Tissue Culture Collection (Rockville, Md., USA). The cells placed in 80 μl of Dulbecco's Modified Eagle's medium (Gibco-Brl, Cergy-Pontoise, France) completed with 10% foetal calf serum inactivated by heating (Gibco-Brl, Cergy-Pontoise, France), 50,000 units/l of penicillin and 50 mg/l of streptomycin (Gibco-Brl, 10378-057, Cergy-Pontoise, France), and 2 mM of glutamine (Gibco-Brl, Cergy-Pontoise, France) were seeded on a 96-well plate on day 0. The cells were treated on day 1 for 96 hours with increasing concentrations of each of the compounds to be tested up to 10 μM. At the end of this period, quantification of cell proliferation is evaluated by a colorimetric test based on the cleavage of the tetrazolium salt WST1 by the mitochondrial dehydrogenases in viable cells leading to the formation of formazan (Boehringer Mannheim, Meylan, France). These tests are carried out in duplicate with 8 determinations per concentration tested. For each compound to be tested, the values included in the linear part of the sigmoid were retained for a linear regression analysis and used to estimate the inhibitory concentration IC50. The products are solubilized in dimethylsulphoxide (DMSO) at 10^−2 M and finally used in culture with 0.1% DMSO.

[2] = system: Mia-Paca2 (human pancreas cancer cells); assay: Antiproliferative activity, WST1 colorimetric test, Mia-PaCa2; assay type: cell-based; settings: MIA PaCa-2, Mia-Paca2, treated 96 hours, up to 10 μM, read-out: IC50 on the cell proliferation of the Mia-Paca2 lines
Protocol: as §1, §2

Row | SMILES | melting point | IC50 [1] | IC50 [2]
1 | CCc1ccc(-c2nc3c(o2)C(=O)C=C(NCCN(C)C)C3=O)cc1 [Example 22, 5-{[2-(dimethylamino)ethyl]amino}-2-(4-ethylphenyl)-1,3-benzoxazole4,7-dione] | 169 to 170 °C | ≤ 10 µM | ≤ 10 µM
2 | CN(C)CCNC1=CC(=O)c2oc(Cc3ccccc3)nc2C1=O [Example 23, 2-benzyl-5-{[2-(dimethylamino)ethyl]amino}-1,3-benzoxazole-4,7-dione] | 135 to 136 °C | ≤ 10 µM | ≤ 10 µM
3 | O=C1C(NCCN2CCCC2)=CC(=O)c2oc(-c3cccc(Br)c3)nc21 [Example 24, 2-(3-bromophenyl)-5-[(2-pyrrolidin-1-ylethyl)amino]1,3-benzoxazole4,7-dione] | 169 to 170 °C | ≤ 10 µM | ≤ 10 µM
4 | O=C1C(NCCN2CCCC2)=CC(=O)c2oc(-c3cc(F)cc(F)c3)nc21 [Example 25, 2-(3,5-difluorophenyl)-5-[(2-pyrrolidin-1-ylethyl)amino]-1,3-benzoxazole-4,7-dione] | 182 to 183 °C | ≤ 10 µM | ≤ 10 µM
5 | O=C1C(NCCN2CCCC2)=CC(=O)c2oc(-c3cc(F)c(F)c(F)c3)nc21 [Example 26, 5-[(2-pyrrolidin-1-ylethyl)amino]-2-(3,4,5-trifluorophenyl)-1,3-benzoxazole-4,7-dione] | 193 to 194 °C | ≤ 10 µM | ≤ 10 µM
6 | CN(C)CCNC1=CC(=O)c2nc(-c3ccccc3Br)oc2C1=O [Example 28, 2-(2-bromophenyl)-6-{[2-(dimethylamino)ethyl]amino}-1,3-benzoxazole4,7-dione] | 147 to 148 °C | ≤ 10 µM | ≤ 10 µM
7 | CN(C)CCNC1=CC(=O)c2nc(-c3cccc(Br)c3)oc2C1=O [Example 29, 2-(3-bromophenyl)-6-{[2-(dimethylamino)ethyl]amino}-1,3-benzoxazole4,7-dione] | 174 to 175 °C | ≤ 10 µM | ≤ 10 µM
8 | CN(C)CCNC1=CC(=O)c2nc(-c3cccc(Cl)c3)oc2C1=O [Example 30, 2-(3-chlorophenyl)-6-{[2-(dimethylamino)ethyl]amino}-1,3-benzoxazole4,7-dione] | 174 to 175 °C | ≤ 10 µM | ≤ 10 µM
9 | CN(C)CCNC1=CC(=O)c2nc(-c3ccc(Br)cc3)oc2C1=O [Example 31, 2-(4-bromophenyl)-6-{[2-(dimethylamino)ethyl]amino}-1,3-benzoxazole-4,7-dione] | 181 to 182 °C | ≤ 10 µM | ≤ 10 µM
10 | CN(C)CCNC1=CC(=O)c2nc(-c3cc(Br)cc(Br)c3)oc2C1=O [Example 32, 2-(3,5-dibromophenyl)-6-{[2-(dimethylamino)ethyl]amino}-1,3-benzoxazole-4,7-dione] | 206 to 207 °C | ≤ 10 µM | ≤ 10 µM
11 | CN(C)CCNC1=CC(=O)c2nc(-c3ccc(F)cc3)oc2C1=O [Example 33, 6-{[2-(dimethylamino)ethyl]amino}-2-(4-fluorophenyl)-1,3-benzoxazole4,7-dione] | 169 to 170 °C | ≤ 10 µM | ≤ 10 µM
12 | CN(C)CCNC1=CC(=O)c2nc(-c3cc(F)cc(F)c3)oc2C1=O [Example 34, 2-(3,5-difluorophenyl)-6-{[2-(dimethylamino)ethyl]amino}-1,3-benzoxazole-4,7-dione] | 176 to 177 °C | ≤ 10 µM | ≤ 10 µM
13 | CN(C)CCNC1=CC(=O)c2nc(-c3cccc(F)c3F)oc2C1=O [Example 35, 2-(2,3-difluorophenyl)-6-{[2-(dimethylamino)ethyl]amino}-1,3-benzoxazole-4,7-dione] | 178 to 179 °C | ≤ 10 µM | ≤ 10 µM
14 | CN(C)CCNC1=CC(=O)c2nc(-c3cc(F)c(F)c(F)c3)oc2C1=O [Example 36, 6-{[2-(dimethylamino)ethyl]amino}-2-(3,4,5-trifluorophenyl)-1,3-benzoxazole4,7-dione] | 188 to 189 °C | ≤ 10 µM | ≤ 10 µM
15 | Cc1cc(-c2nc3c(o2)C(=O)C(NCCN(C)C)=CC3=O)ccc1Br [Example 37, 2-(4-bromo-3-methylphenyl)-6-{[2-(dimethylamino)ethyl]amino}-1,3-benzoxazole-4,7-dione] | 165 to 166 °C | ≤ 10 µM | ≤ 10 µM
16 | CCc1ccc(-c2nc3c(o2)C(=O)C(NCCN(C)C)=CC3=O)cc1 [Example 38, 6-{[2-(dimethylamino)ethyl]amino}-2-(4-ethylphenyl)-1,3-benzoxazole-4,7-dione] | 151 to 152 °C | ≤ 10 µM | ≤ 10 µM
17 | CN(C)CCNC1=CC(=O)c2nc(-c3ccc(Br)cc3Cl)oc2C1=O [Example 39, 2-(4-bromo-2-chlorophenyl)-6-{[2-(dimethylamino)ethyl]amino}-1,3-benzoxazole4,7-dione] | 163 to 164 °C | ≤ 10 µM | ≤ 10 µM
18 | COc1ccc(-c2nc3c(o2)C(=O)C(NCCN(C)C)=CC3=O)cc1OC [Example 41, 2-(3,4-dimethoxyphenyl)-6-{[2-(dimethylamino)ethyl]amino}-1,3-benzoxazole-4,7-dione] | 181 to 182 °C | ≤ 10 µM | ≤ 10 µM
19 | CN(C)CCNC1=CC(=O)c2nc(Cc3c(Cl)cccc3Cl)oc2C1=O [Example 42, 2-(2,6-dichlorobenzyl)-6-{[2-(dimethylamino)ethyl]amino}-1,3-benzoxazole4,7-dione] | 172 to 173 °C | ≤ 10 µM | ≤ 10 µM
20 | CN(C)CCNC1=CC(=O)c2nc(Cc3c(F)cccc3Cl)oc2C1=O [Example 43, 2-(2-chloro-6-fluorobenzyl)-6-{[2-(dimethylamino)ethyl]amino}-1,3-benzoxazole4,7-dione] | 178 to 179 °C | ≤ 10 µM | ≤ 10 µM
21 | CN(C)CCNC1=CC(=O)c2nc(Cc3cccc4ccccc34)oc2C1=O [Example 44, 6-{[2-(dimethylamino)ethyl]amino}-2-(1-naphthylmethyl)-1,3-benzoxazole-4,7-dione] | 153 to 154 °C | ≤ 10 µM | ≤ 10 µM
22 | O=C1C=C(NCCN2CCCC2)C(=O)c2oc(-c3ccccc3Br)nc21 [Example 45, 2-(2-bromophenyl)-6-[(2-pyrrolidin-1-ylethyl)amino]-1,3-benzoxazole-4,7-dione] | 123 to 124 °C | ≤ 10 µM | ≤ 10 µM
23 | O=C1C=C(NCCN2CCCC2)C(=O)c2oc(-c3cccc(Br)c3)nc21 [Example 46, 2-(3-bromophenyl)-6-[(2-pyrrolidin-1-ylethyl)amino]-1,3-benzoxazole-4,7-dione] | 163 to 164 °C | ≤ 10 µM | ≤ 10 µM
24 | O=C1C=C(NCCN2CCCC2)C(=O)c2oc(-c3cccc(Cl)c3)nc21 [Example 47, 2-(3-chlorophenyl)-6-[(2-pyrrolidin-1-ylethyl)amino]-1,3-benzoxazole4,7-dione] | 161 to 162 °C | ≤ 10 µM | ≤ 10 µM
25 | O=C1C=C(NCCN2CCCC2)C(=O)c2oc(-c3ccc(Br)cc3)nc21 [Example 48, 2-(4-bromophenyl)-6-[(2-pyrrolidin-1-ylethyl)amino]-1,3-benzoxazole-4,7-dione] | 165 to 166 °C | ≤ 10 µM | ≤ 10 µM
26 | O=C1C=C(NCCN2CCCC2)C(=O)c2oc(-c3cc(Br)cc(Br)c3)nc21 [Example 49, 2-(3,5-dibromophenyl)-6-[(2-pyrrolidin-1-ylethyl)amino]-1,3-benzoxazole-4,7-dione] | 202 to 203 °C | ≤ 10 µM | ≤ 10 µM
27 | O=C1C=C(NCCN2CCCC2)C(=O)c2oc(-c3ccc(F)cc3)nc21 [Example 50, 2-(4-fluorophenyl)-6-[(2-pyrrolidin-1-ylethyl)amino]-1,3-benzoxazole-4,7-dione] | 170 to 171 °C | ≤ 10 µM | ≤ 10 µM
28 | O=C1C=C(NCCN2CCCC2)C(=O)c2oc(-c3cc(F)cc(F)c3)nc21 [Example 51, 2-(3,5-difluorophenyl)-6-[(2-pyrrolidin-1-ylethyl)amino]-1,3-benzoxazole-4,7-dione] | 163 to 164 °C | ≤ 10 µM | ≤ 10 µM
29 | O=C1C=C(NCCN2CCCC2)C(=O)c2oc(-c3cc(F)c(F)c(F)c3)nc21 [Example 52, 6-[(2-pyrrolidin-1-ylethyl)amino]-2-(3,4,5-trifluorophenyl)-1,3-benzoxazole4,7-dione] | 171 to 172 °C | ≤ 10 µM | ≤ 10 µM
